Results taken from the NIST ThermoML archive (doi:10.1016/j.jct.2009.06.010).

Tests used:
[1] = mn = molality of the nth substance listed, in mol/kg; conditions: 298.15 K, 101 kPa, Liquid; for viscosity: Capillary tube (Ostwald / Ubbelohde) method; for mass density: Vibrating tube method
[2] = cn = amount concentration of the nth substance listed, in mol/dm3; conditions: 298.15 K, 101 kPa, Liquid

C[C@H](N)C(=O)N[C@@H](CCC(N)=O)C(=O)O [L-alanyl-L-glutamine] + O
[1]
Conditions | mass density [kg/m3] | viscosity [mPa·s]
m1 = 0.0401 | 999.957 | –
m1 = 0.05 | – | 0.918
m1 = 0.08086 | 1002.88 | –
m1 = 0.1 | – | 0.948
m1 = 0.1012 | 1004.32 | –
m1 = 0.148 | 1007.6 | –
m1 = 0.15 | – | 0.978
m1 = 0.2 | – | 1.008
m1 = 0.2002 | 1011.17 | –
m1 = 0.2448 | 1014.22 | –
m1 = 0.2993 | 1017.77 | –

CCCC(=O)[O-].[Na+] [sodium butyrate] + O
[2]
Conditions | molar conductivity [S·m2/mol]
c1 = 0.0003234 | 0.00796
c1 = 0.001116 | 0.00795
c1 = 0.001273 | 0.007936
c1 = 0.001488 | 0.007915
c1 = 0.00188 | 0.00788
c1 = 0.00243 | 0.007842
c1 = 0.002454 | 0.00787
c1 = 0.003167 | 0.00766
c1 = 0.006298 | 0.007526
c1 = 0.008849 | 0.007443
c1 = 0.01124 | 0.00737
c1 = 0.01353 | 0.007315
c1 = 0.0155 | 0.00727
c1 = 0.01721 | 0.007239
c1 = 0.01916 | 0.007203
c1 = 0.02091 | 0.00717
c1 = 0.02284 | 0.007137
c1 = 0.02481 | 0.0071
c1 = 0.02647 | 0.00707

NCC(=O)N[C@@H](CCC(N)=O)C(=O)O [glycyl-l-glutamine] + O
[1]
Conditions | mass density [kg/m3] | viscosity [mPa·s]
m1 = 0.03879 | 1000.01 | –
m1 = 0.05 | – | 0.913
m1 = 0.06116 | 1001.7 | –
m1 = 0.08141 | 1003.22 | –
m1 = 0.1 | – | 0.936
m1 = 0.1008 | 1004.66 | –
m1 = 0.1497 | 1008.28 | –
m1 = 0.15 | – | 0.961
m1 = 0.1987 | 1011.85 | –
m1 = 0.2 | – | 0.985
m1 = 0.2522 | 1015.68 | –

CC(=O)[O-].[Na+] [sodium ethanoate] + O
[2]
Conditions | molar conductivity [S·m2/mol]
c1 = 0.0002726 | 0.0088
c1 = 0.0004823 | 0.008807
c1 = 0.0007722 | 0.008806
c1 = 0.0009672 | 0.00879
c1 = 0.001191 | 0.00877
c1 = 0.001382 | 0.00872
c1 = 0.001567 | 0.008739
c1 = 0.001787 | 0.00872
c1 = 0.002055 | 0.008701
c1 = 0.002254 | 0.00869
c1 = 0.002454 | 0.00867
c1 = 0.003305 | 0.00849
c1 = 0.00463 | 0.00842
c1 = 0.006134 | 0.008351
c1 = 0.007784 | 0.00829
c1 = 0.008716 | 0.00826
c1 = 0.01014 | 0.008207
c1 = 0.01138 | 0.00817
c1 = 0.01268 | 0.008135
c1 = 0.01404 | 0.008103
c1 = 0.01528 | 0.00808
c1 = 0.01648 | 0.00806
c1 = 0.01789 | 0.00802
c1 = 0.01915 | 0.008
c1 = 0.02025 | 0.00797
c1 = 0.02164 | 0.007945
c1 = 0.02337 | 0.007911
c1 = 0.02523 | 0.00787
c1 = 0.02696 | 0.007849
